Results on 13 compounds are retold here after patent US7902354B2, “Lapachone compounds and methods of use thereof” (ArQule, Inc., priority 2006, dated 2011).

Common to all, as to assay type: cell-based
Test [1] concerns DLD-1 human colon carcinoma cells. The experiment in a line: MTS cell viability assay, DLD-1 human colon carcinoma cells. Particulars: DLD-1, 4 h compound incubation, MTS, read-out: IC50 Values, Cancerous Cells, Colon DLD-1. On the technique in general: Formazan colour is commonly taken as a measure of viable cells.
For test [2], the system named is NCM-460 normal colon epithelial cells. Description: MTS cell viability assay, NCM-460 normal colon epithelial cells. To be noted: for IC50: Homo sapiens, NCM460, NCM-460, 4 h compound incubation, MTS, read-out: IC50 Values, Normal Cells, Colon NCM-460; for Fold Selectivity (NCM-460/DLD1): ratio of IC50 NCM-460 / DLD1.
Test [3] concerns K-562 human leukemia cells. Description: MTS cell viability assay, K-562 human leukemia cells. To be noted: K562, K-562, 4 h compound incubation, MTS, read-out: IC50 Values, Cancerous Cells, Leukemia K-562.
Test [4] deals with DU-145 human prostate carcinoma cells. Description: MTS cell viability assay, DU-145 human prostate carcinoma cells. Particulars: DU-145, 4 h compound incubation, MTS, read-out: IC50 Values, Cancerous Cells, Prostate DU-145.
Test [5] deals with A549 human lung carcinoma cells. Description: MTS cell viability assay, A549 human lung carcinoma cells. To be noted: A549, 4 h compound incubation, MTS, read-out: IC50 Values, Cancerous Cells, Lung A549.
The test system of test [6] is PACA-2 human pancreatic carcinoma cells. Description: MTS cell viability assay, PACA-2 human pancreatic carcinoma cells. Particulars: PACA-2, 4 h compound incubation, MTS, read-out: IC50 Values, Cancerous Cells, Pancreas PACA-2.

By IC50 is commonly meant the point on the concentration scale where inhibition reaches its midpoint.

As to `CN(C)c1cccc(C(=O)N2CCC3(CC2)CSC2=C(O3)c3ccccc3C(=O)C2=O)c1` [Compound 46, 1′-[3-(dimethylamino)benzoyl]spiro[naphtho[1,2-b][1,4]oxathiine-2,4′-piperidine]-5,6-dione], the IC50 was 5.26 µM in test [1]; 28.6 µM in test [2]; 9.61 µM in test [3]; 5.03 µM in test [4]; more than 100 µM in test [5]; 4.24 µM in test [6]. For the same compound, the “Fold Selectivity (NCM-460/DLD1)” value in test [2] is given as 5.4.
As for `Cc1cc(C(=O)N2CCC3(CC2)CSC2=C(O3)c3ccccc3C(=O)C2=O)c(C)o1` [Compound 41, 1′-(2,5-dimethyl-3-furoyl)spiro[naphtho[1,2-b][1,4]oxathiine-2,4′-piperidine]-5,6-dione], the IC50 in test [1] was 1.58 µM; in test [2] it was 5.8 µM; in test [3] it was 1.44 µM; in test [4], 3.1 µM; in test [5] it was 4.84 µM; in test [6], 1.47 µM. In addition, in test [2], the “Fold Selectivity (NCM-460/DLD1)” value is given as 3.7.
Regarding `O=C1C(=O)c2ccccc2C2=C1SCC1(CCN(C(=O)C(Cl)c3ccccc3)CC1)O2` (stereo not shown) [Compound 50, 1′-[chloro(phenyl)acetyl]spiro[naphtho[1,2-b][1,4]oxathiine-2,4′-piperidine]-5,6-dione], the IC50 in test [1] came out at 1.54 µM; in test [2], 7.14 µM; in test [3], 1.44 µM; in test [4], 3.55 µM; in test [5] it was 5.41 µM; in test [6], 1.42 µM. Also, the “Fold Selectivity (NCM-460/DLD1)” value in test [2] is given as 4.6.
As to `O=C1C(=O)c2ccccc2C2=C1SCC1(CCN(C(=O)Oc3ccccn3)CC1)O2` [Compound 112, pyridin-2-yl 5,6-dioxo-5,6-dihydro-1′H-spiro[naphtho[1,2-b][1,4]oxathiine-2,4′-piperidine]-1′-carboxylate], the half-maximal inhibitory concentration (IC50) in test [1] was 1.54 µM; in test [2] it was 6.3 µM; in test [3] it was 2.97 µM; in test [4], 3.99 µM; in test [5], 11.2 µM; in test [6] it was 1.83 µM. For the same compound, the “Fold Selectivity (NCM-460/DLD1)” value in test [2] is 4.1.
Take `O=C1C(=O)c2ccccc2C2=C1SCC1(CCN(CC(O)c3ccccc3)CC1)O2` (stereo not shown) [Compound 167, 1′-(2-hydroxy-2-phenylethyl)spiro[naphtho[1,2-b][1,4]oxathiine-2,4′-piperidine]-5,6-dione]: the IC50 was 1.35 µM in test [1]; 3.68 µM in test [2]; 1.53 µM in test [3]; 2.76 µM in test [4]; 7.56 µM in test [5]; 1.26 µM in test [6]. For the same compound, the “Fold Selectivity (NCM-460/DLD1)” value in test [2] is given as 2.7.
For the compound `O=C1C(=O)c2ccccc2C2=C1SCC1(CCN(C3CCCCC3)CC1)O2` [Compound 258, 1′-cyclohexylspiro[naphtho[1,2-b][1,4]oxathiine-2,4′-piperidine]-5,6-dione], the half-inhibitory concentration (IC50) worked out at 1.49 µM in test [1]; 5.91 µM in test [2]; 1.49 µM in test [3]; 3.9 µM in test [4]; 5.42 µM in test [5]; 1.99 µM in test [6]. In addition, the “Fold Selectivity (NCM-460/DLD1)” value in test [2] was 4.0.
On to `CC(C)(C)c1ccc(OCC(O)CN2CCC3(CC2)CSC2=C(O3)c3ccccc3C(=O)C2=O)cc1` (stereo not shown) [Compound 157, 1′-[3-(4-tert-butylphenoxy)-2-hydroxypropyl]spiro[naphtho[1,2-b][1,4]oxathiine-2,4′-piperidine]-5,6-dione], for which the IC50 in test [1] amounted to 3.63 µM; in test [2], 28.2 µM; in test [3], 7.6 µM; in test [4], 2.26 µM; in test [5], 8.03 µM; in test [6], 2.08 µM. The “Fold Selectivity (NCM-460/DLD1)” value in test [2] is listed as 7.8.
On to `O=C1C(=O)c2ccccc2C2=C1SCC1(CCN(C(=O)CSc3ccccc3)CC1)O2` [Compound 48, 1′-[(phenylthio)acetyl]spiro[naphtho[1,2-b][1,4]oxathiine-2,4′-piperidine]-5,6-dione], for which the IC50 in test [1] is 1.55 µM; in test [2], 5.7 µM; in test [3], 1.5 µM; in test [4] it was 4.12 µM; in test [5] it was 11.8 µM; in test [6], 2.37 µM. In test [2], the “Fold Selectivity (NCM-460/DLD1)” value is given as 3.7.
For `O=C1C(=O)c2ccccc2C2=C1SCC1(CCN(C(=O)c3cccc(C(F)(F)F)c3)CC1)O2` [Compound 54, 1′-[3-(trifluoromethyl)benzoyl]spiro[naphtho 1,2-b][1,4]oxathiine-2,4′-piperidine-5,6-dione], the concentration for half-maximal inhibition (IC50) in test [1] came to 1.49 µM; in test [2], 11 µM; in test [3], 1.74 µM; in test [4], 1.91 µM; in test [5], 7.57 µM; in test [6], 1.33 µM. The “Fold Selectivity (NCM-460/DLD1)” value in test [2] is listed as 7.4.
In the case of `O=C1C(=O)c2ccccc2C2=C1SCC1(CCN(S(=O)(=O)c3c(Cl)nc4sccn34)CC1)O2` [Compound 77, 1′-[(6-chloroimidazo[2,1-b][1,3]thiazol-5-yl)sulfonyl]spiro[naphtho[1,2-b][1,4]oxathiine-2,4′-piperidine]-5,6-dione], the 50% inhibitory concentration (IC50) in test [1] was 20.6 µM; in test [2], 76.4 µM; in test [3] it was 22.9 µM; in test [4], 49.2 µM; in test [5] it was more than 100 µM; in test [6], 16.1 µM. For the same compound, the “Fold Selectivity (NCM-460/DLD1)” value in test [2] turned out to be 3.7.
Turning to `O=C1C(=O)c2ccc(F)cc2C2=C1SCC1(CCN(C(=O)Oc3cccc(C(F)(F)F)c3)CC1)O2` [Compound 100, 3-(trifluoromethyl)phenyl 9-fluoro-5,6-dioxo-5,6-dihydro-1′H-spiro[naphtho[1,2-b][1,4]oxathiine-2,4′-piperidine]-1′-carboxylate], the IC50 worked out at 1.13 µM in test [1]; 5.67 µM in test [2]; 1.37 µM in test [3]; 1.39 µM in test [4]; 8 µM in test [5]; 1.32 µM in test [6]. For the same compound, the “Fold Selectivity (NCM-460/DLD1)” value in test [2] worked out at 5.0.
For `CCCCC(O)CN1CCC2(CC1)CSC1=C(O2)c2ccccc2C(=O)C1=O` (stereo not shown) [Compound 162, 1′-(2-hydroxyhexyl)spiro[naphtho[2-b][1,4]oxathiine-2,4′-piperidine]-5,6-dione], the half-maximal inhibitory concentration (IC50) in test [1] is 1.36 µM; in test [2] it was 2.8 µM; in test [3], 1.5 µM; in test [4], 2.77 µM; in test [5], 6.95 µM; in test [6], 1.45 µM. The “Fold Selectivity (NCM-460/DLD1)” value in test [2] was 2.1.
Consider `O=C1C(=O)c2ccccc2C2=C1SCC1(CCN(C(=O)C3CCCCC3C(=O)O)CC1)O2` (stereo not shown) [Compound 231, 2-[(5,6-dioxo-5,6-dihydro-1′H-spiro[naphtho[1.2-b][1,4]oxathiine-2,4′-piperidin]-1′-yl)carbonyl]cyclohexanecarboxylic acid], for which the concentration for half-maximal inhibition (IC50) in test [1] stood at 9.27 µM; in test [2] it was 12.3 µM; in test [3], 10.6 µM; in test [4] it was 12 µM; in test [5], 27.9 µM; in test [6] it was 4.84 µM. Besides, the “Fold Selectivity (NCM-460/DLD1)” value in test [2] worked out at 1.3.
